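Compound exposure: 48 hours, 5 concentrations, 96-well plates. TGI: concentration producing complete growth inhibition.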
How the values were obtained:
Test in all cases: NCI tumour cell line growth inhibition, 48 h
[1] = system: NCI/ADR-RES ovarian
[2] = system: U251 CNS
[3] = system: NCI-H460 lung
[4] = system: MOLT-4 leukemia
[5] = system: MCF7 breast
[6] = system: BT-549 breast
[7] = system: OVCAR-3 ovarian
[8] = system: KM12 colon
[9] = system: 786-0 renal
[10] = system: OVCAR-4 ovarian
[11] = system: OVCAR-5 ovarian
[12] = system: MALME-3M melanoma
[13] = system: A498 renal
[14] = system: IGROV1 ovarian
[15] = system: SK-MEL-28 melanoma
[16] = system: UACC-62 melanoma
[17] = system: HCT-15 colon
[18] = system: SF-268 CNS
[19] = system: PC-3 prostate
[20] = system: SK-MEL-5 melanoma
[21] = system: COLO 205 colon
[22] = system: HCT-116 colon
[23] = system: SNB-19 CNS
[24] = system: CCRF-CEM leukemia
[25] = system: SK-OV-3 ovarian
[26] = system: HT29 colon
[27] = system: SN12C renal
[28] = system: HOP-92 NSCLC
[29] = system: SF-295 CNS
[30] = system: LOX IMVI melanoma
[31] = system: TK-10 renal
[32] = system: UO-31 renal
[33] = system: NCI-H226 lung
[34] = system: ACHN renal
[35] = system: NCI-H23 lung
[36] = system: RPMI-8226 leukemia
[37] = system: SR leukemia
[38] = system: NCI-H522 lung
[39] = system: MDA-MB-231 breast
[40] = system: EKVX NSCLC
[41] = system: CAKI-1 renal
[42] = system: OVCAR-8 ovarian
[43] = system: SF-539 CNS
[44] = system: DU-145 prostate
[45] = system: MDA-MB-435
[46] = system: SW-620 colon
[47] = system: HS 578T breast
[48] = system: A549 NSCLC
[49] = system: M14 melanoma
[50] = system: UACC-257 melanoma
[51] = system: SNB-75 CNS
[52] = system: K-562 leukemia
[53] = system: HL-60(TB) leukemia
[54] = system: HOP-62 NSCLC
[55] = system: T-47D breast
[56] = system: MDA-N
[57] = system: RXF 393 renal
[58] = system: HCC-2998 colon
[59] = system: SK-MEL-2 melanoma

`C/C(=N\NC(=S)N/N=C(\C)c1ccccn1)c1ccccn1` was tested, and the TGI [1] was 27 µM, the TGI [2] was over 100 µM and the TGI [3] was 6.46 µM. It also gave a TGI [4] of 5.9 µM, a TGI [5] of over 100 µM and a TGI [6] of over 100 µM. It also gave a TGI [7] of over 100 µM, a TGI [8] of over 100 µM and a TGI [9] of over 100 µM. It also gave a TGI [10] of over 100 µM, a TGI [11] of over 100 µM and a TGI [12] of over 100 µM. For the same compound, the TGI [13] was 82.6 µM, the TGI [14] was over 100 µM and the TGI [15] was over 100 µM. The TGI [16] was 15 µM, the TGI [17] was over 100 µM and the TGI [18] was 16.3 µM. The TGI [19] was over 100 µM, the TGI [20] was over 100 µM and the TGI [21] was over 100 µM. For the same compound, the TGI [22] was over 100 µM, the TGI [23] was over 100 µM and the TGI [24] was 1.7 µM. It also gave a TGI [25] of over 100 µM, a TGI [26] of over 100 µM and a TGI [27] of over 100 µM. The TGI [28] was over 100 µM, the TGI [29] was over 100 µM and the TGI [30] was over 100 µM. It also gave a TGI [31] of over 100 µM, a TGI [32] of 5.31 µM and a TGI [33] of 3.78 µM. For the same compound, the TGI [34] was 5.7 µM, the TGI [35] was over 100 µM and the TGI [36] was over 100 µM. It also gave a TGI [37] of over 100 µM, a TGI [38] of over 100 µM and a TGI [39] of over 100 µM. For the same compound, the TGI [40] was 84.3 µM, the TGI [41] was 5.24 µM and the TGI [42] was over 100 µM. The TGI [43] was 8.83 µM, the TGI [44] was over 100 µM and the TGI [45] was over 100 µM. The TGI [46] was over 100 µM, the TGI [47] was over 100 µM and the TGI [48] was over 100 µM. The TGI [49] was 4.88 µM, the TGI [50] was over 100 µM and the TGI [51] was over 100 µM. It also gave a TGI [52] of 7.92 µM, a TGI [53] of over 100 µM and a TGI [54] of 5.28 µM. It also gave a TGI [55] of over 100 µM and a TGI [56] of over 100 µM.
For `O=C(NC12CC3CC(CC(C3)C1)C2)n1cnc2cncnc21`, the TGI [1] was over 100 µM, the TGI [2] was over 100 µM and the TGI [3] was over 100 µM. For the same compound, the TGI [4] was over 100 µM, the TGI [5] was over 100 µM and the TGI [6] was over 100 µM. It also gave a TGI [7] of 47 µM, a TGI [8] of over 100 µM and a TGI [9] of over 100 µM. It also gave a TGI [11] of over 100 µM, a TGI [12] of 78.6 µM and a TGI [13] of over 100 µM. The TGI [14] was 98 µM, the TGI [15] was over 100 µM and the TGI [16] was over 100 µM. It also gave a TGI [17] of over 100 µM, a TGI [18] of over 100 µM and a TGI [19] of 98.7 µM. The TGI [20] was 30.6 µM, the TGI [57] was over 100 µM and the TGI [21] was 37.4 µM. The TGI [22] was over 100 µM, the TGI [23] was over 100 µM and the TGI [58] was over 100 µM. For the same compound, the TGI [24] was over 100 µM, the TGI [25] was 47.1 µM and the TGI [26] was over 100 µM. For the same compound, the TGI [27] was over 100 µM, the TGI [28] was over 100 µM and the TGI [29] was 67.6 µM. The TGI [30] was 92 µM, the TGI [31] was over 100 µM and the TGI [32] was over 100 µM. For the same compound, the TGI [34] was over 100 µM, the TGI [35] was over 100 µM and the TGI [36] was 79.4 µM. For the same compound, the TGI [37] was 62.4 µM, the TGI [38] was 53.8 µM and the TGI [39] was over 100 µM. It also gave a TGI [40] of over 100 µM, a TGI [59] of 58.4 µM and a TGI [41] of over 100 µM. It also gave a TGI [42] of over 100 µM, a TGI [43] of 54.5 µM and a TGI [44] of over 100 µM. For the same compound, the TGI [45] was over 100 µM, the TGI [46] was over 100 µM and the TGI [47] was over 100 µM. It also gave a TGI [48] of over 100 µM, a TGI [49] of over 100 µM and a TGI [50] of over 100 µM. For the same compound, the TGI [51] was over 100 µM, the TGI [52] was over 100 µM and the TGI [53] was over 100 µM. For the same compound, the TGI [54] was 51.5 µM, the TGI [55] was over 100 µM and the TGI [56] was over 100 µM.
In the case of `O=C1N2CCN=C2c2ccccc2C1(O)c1ccccc1` (centres undefined), the TGI [1] is reported as over 100 µM, the TGI [2] is reported as over 100 µM and the TGI [3] is reported as over 100 µM. For the same compound, the TGI [4] was over 100 µM, the TGI [5] was over 100 µM and the TGI [6] was over 100 µM. The TGI [8] was over 100 µM, the TGI [9] was over 100 µM and the TGI [10] was over 100 µM. The TGI [11] was over 100 µM, the TGI [13] was over 100 µM and the TGI [14] was over 100 µM. For the same compound, the TGI [15] was over 100 µM, the TGI [16] was over 100 µM and the TGI [17] was over 100 µM. It also gave a TGI [18] of over 100 µM, a TGI [19] of over 100 µM and a TGI [20] of over 100 µM. It also gave a TGI [21] of over 100 µM, a TGI [22] of over 100 µM and a TGI [23] of over 100 µM. The TGI [58] was over 100 µM, the TGI [24] was over 100 µM and the TGI [26] was over 100 µM. It also gave a TGI [27] of over 100 µM, a TGI [28] of over 100 µM and a TGI [29] of over 100 µM. For the same compound, the TGI [30] was over 100 µM, the TGI [31] was over 100 µM and the TGI [32] was over 100 µM. It also gave a TGI [33] of over 100 µM, a TGI [34] of over 100 µM and a TGI [35] of over 100 µM. The TGI [36] was over 100 µM, the TGI [37] was over 100 µM and the TGI [39] was over 100 µM. It also gave a TGI [40] of over 100 µM, a TGI [41] of over 100 µM and a TGI [42] of over 100 µM. For the same compound, the TGI [43] was over 100 µM, the TGI [44] was over 100 µM and the TGI [45] was over 100 µM. It also gave a TGI [46] of over 100 µM, a TGI [47] of over 100 µM and a TGI [48] of over 100 µM. It also gave a TGI [49] of over 100 µM, a TGI [50] of over 100 µM and a TGI [51] of over 100 µM. For the same compound, the TGI [52] was over 100 µM, the TGI [53] was over 100 µM and the TGI [54] was over 100 µM. The TGI [55] was over 100 µM and the TGI [56] was over 100 µM.
Compound `COC1=CC(=O)c2c(O)c3c(c(O)c2C1=O)CC(C)(O)OC3` (centres undefined) has a TGI [1] of over 25.9 µM, a TGI [2] of 10.5 µM and a TGI [3] of 6.48 µM. It also gave a TGI [4] of 8.68 µM, a TGI [5] of 7.29 µM and a TGI [6] of 18.7 µM. For the same compound, the TGI [7] was 7.08 µM, the TGI [8] was over 35.8 µM and the TGI [9] was 27.3 µM. The TGI [10] was 4.51 µM, the TGI [11] was 14.6 µM and the TGI [12] was 2.1 µM. It also gave a TGI [13] of 25.2 µM, a TGI [14] of 7.94 µM and a TGI [15] of 31.5 µM. The TGI [16] was 7.35 µM, the TGI [17] was 9.08 µM and the TGI [18] was over 100 µM. The TGI [19] was 14.9 µM, the TGI [20] was 2.41 µM and the TGI [57] was 16.5 µM. For the same compound, the TGI [21] was 4.76 µM, the TGI [22] was 10.6 µM and the TGI [23] was 13.4 µM. For the same compound, the TGI [58] was 13.9 µM, the TGI [24] was 17.4 µM and the TGI [25] was 58.9 µM. The TGI [26] was 11.6 µM, the TGI [27] was 14.2 µM and the TGI [28] was 10.5 µM. It also gave a TGI [29] of 13.9 µM, a TGI [30] of 12.9 µM and a TGI [31] of 34.4 µM. For the same compound, the TGI [32] was 15.2 µM, the TGI [33] was 37.2 µM and the TGI [34] was over 34 µM. For the same compound, the TGI [35] was 8.42 µM, the TGI [36] was over 76.8 µM and the TGI [38] was 7.24 µM. It also gave a TGI [39] of over 41 µM, a TGI [40] of 18.7 µM and a TGI [59] of 9.9 µM. The TGI [41] was 16.5 µM, the TGI [42] was 8.65 µM and the TGI [43] was 9.66 µM. It also gave a TGI [44] of 15 µM, a TGI [45] of 3.05 µM and a TGI [46] of 12.7 µM. For the same compound, the TGI [47] was 35.9 µM, the TGI [48] was 8.8 µM and the TGI [49] was 4.53 µM. The TGI [50] was 4.88 µM, the TGI [51] was over 67.6 µM and the TGI [52] was over 45.3 µM. For the same compound, the TGI [53] was 24.2 µM, the TGI [54] was 12.7 µM and the TGI [55] was 8.38 µM. The TGI [56] was 3.57 µM.
